Reference: patent US20080249042A1, “All-Trans-Retinol: All-Trans-13,14-Dihydroretinol Saturase and Methods of Its Use” (UNIVERSITY OF WASHINGTON, priority 2004, published 2008)

Experiments:
mouse RXR-α = biological target: T1, mouse RXR-α (Mus musculus, UniProt P28700); assay: RXRE (DR1) activation assay, HEK-293S cells with pRXRE-BLUE and RXR-α; assay type: cell-based; conditions: cotransfected with mouse RXR-α, 48 h
T1 construct: The RXR-α open reading frame was then subcloned into the pcDNA3.1 Directional TOPO vector; expressed in transfected cells; host or cells: N-acetylglucosaminyltransferase I-negative HEK-293S
T1 sequence (P28700 1-467): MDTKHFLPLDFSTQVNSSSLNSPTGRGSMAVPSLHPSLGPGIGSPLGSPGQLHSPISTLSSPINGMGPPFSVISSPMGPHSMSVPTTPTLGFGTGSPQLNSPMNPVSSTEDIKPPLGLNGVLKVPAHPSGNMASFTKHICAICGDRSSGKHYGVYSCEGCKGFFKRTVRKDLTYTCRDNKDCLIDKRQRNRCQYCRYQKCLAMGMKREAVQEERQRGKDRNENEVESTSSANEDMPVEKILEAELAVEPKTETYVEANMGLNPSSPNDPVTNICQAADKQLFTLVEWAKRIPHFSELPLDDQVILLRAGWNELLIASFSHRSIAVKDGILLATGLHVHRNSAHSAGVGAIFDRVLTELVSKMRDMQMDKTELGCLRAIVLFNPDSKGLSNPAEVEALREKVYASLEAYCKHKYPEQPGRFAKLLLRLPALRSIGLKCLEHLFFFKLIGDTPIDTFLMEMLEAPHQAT

[1] = Liver retinoids of Lrat-/- mice 3 h after gavage with all-trans-RA; assay type: in vivo, mouse; conditions: 3 h post-gavage
Description: Metabolism of Retinoids in Vivo. All animal experiments employed procedures approved by the University of Washington and conformed to recommendations of the American Veterinary Medical Association Panel on Euthanasia and recommendations of the Association of Research for Vision and Ophthalmology. Animals were maintained on a 12-h light and 12-h dark cycle. All manipulations were done under dim red or infrared light (>560 nm). Most experiments used 6-12-week-old mice. Lrat−/− mice were genotyped as described previously. Batten, et al. J. Biol. Chem. 279:10422-10432, 2004. Animals were maintained on a control chow diet up to 1 h prior to oral gavage. The appropriate amount of all-trans-ROL palmitate, all-trans-DROL, or all-trans-RA was dissolved in vegetable oil and administered by oral gavage 3 h prior to analysis.
Analysis of Retinoids. Liver (1 g) from retinoid gavaged or naive mice was homogenized in 2 ml of 137 mM NaCl, 2.7 mM KCl, and 10 mM sodium phosphate (pH 7.4) for 30 s using a Polytron homogenizer. 10 μl of 5 M NaOH was added to 3 ml of the ethanolic extract, and the nonpolar retinoids were extracted using 5 ml of hexane. The extraction was repeated, and the organic phases were combined, dried under vacuum, resuspended in hexane, and examined by normal phase HPLC using a normal phase column (Beckman Ultrasphere Si 5μ, 4.6×250 mm). […] The HPLC elution conditions were […], 100% buffer A for 40 min, 100% buffer B for 10 min, and 10 min equilibration in buffer A. The elution profiles of RA and DRA were monitored using an online diode array detector set at 350 and 290 nm, respectively. […] The measured area of absorbance was converted to picomoles based on a calibration of the HPLC columns using a known amount of all-trans-RA or all-trans-ROL (Sigma) and all-trans-DROL or all-trans-DRA (synthetic standards). The extraction efficiency was monitored by spiking a tissue sample with [^3H]RA (PerkinElmer Life Sciences) and monitoring the radioactivity recovered from the HPLC column. […]

CC1=C(/C=C/C(C)=C/C=C/C(C)CC(=O)O)C(C)(C)CCC1 (stereo not drawn) [all-trans-DRA, all-trans-13,14-dihydroretinoic acid]
Activation of RXR-mediated transcription (DR1 elements) (mouse RXR-α): very weak RXR activator | Formation in liver after gavage with all-trans-RA [1]: no evidence
